Values after ≈ are worked out from the molar mass of the structure shown.
How the values were obtained:
Mus musculus = species: Mus musculus; test: Activity against Staphylococcus aureus A15090 infected ICR mouse after 8 days; format: functional; details: 192 h, read-out: PD50
Staphylococcus aureus = test: Antibacterial activity against methicillin-sensitive Staphylococcus aureus A15090; format: functional
Streptococcus pneumoniae = test: Antibacterial activity against penicillin resistant Streptococcus pneumoniae A28272; format: functional
[1] = Solubility at pH 3.1; format: physicochemical; details: buffer
Enterococcus faecalis = test: Antibacterial activity against […] A20688; format: functional
[2] = Solubility at pH 7.4; format: physicochemical; details: buffer
[3] = Solubility at pH 3.0; format: physicochemical; details: buffer
[4] = Solubility at pH 3.2; format: physicochemical; details: buffer
[5] = Solubility at pH 2.9; format: physicochemical; details: buffer

| Compound | ED50 (Mus musculus) [mg/kg] | MIC (Staphylococcus aureus) [µg/mL] | MIC (Streptococcus pneumoniae) [µg/mL] | solubility [1] [µg/mL] | MIC (Enterococcus faecalis) [µg/mL] | solubility [2] [µg/mL] | solubility [3] [µg/mL] | solubility [4] [µg/mL] | solubility [5] [µg/mL] |
| --- | --- | --- | --- | --- | --- | --- | --- | --- | --- |
| CO/C(C)=C1/NC(=O)[C@H]([C@@H](C)O)NC(=O)c2csc(n2)-c2cc(O)c(-c3nc(C(=O)N[C@@H](C)C(=O)NCCO)cs3)nc2-c2csc(n2)[C@@H]2COC(=O)c3c4c5c(cccc5n3O)COC(=O)[C@@H](O[C@H]3C[C@](C)(O)[C@H](N(C)C)[C@H](C)O3)[C@@H](OC4)[C@H](NC(=O)c3csc1n3)c1nc(cs1)C(=O)N2 | 1.44 | 0.03 (≈ 0.0202 µM) | 0.001 (≈ 0.000674 µM) | 1300 (≈ 876 µM) | 0.5 (≈ 0.337 µM) | – | – | – | – |
| CO/C(C)=C1/NC(=O)[C@H]([C@@H](C)O)NC(=O)c2csc(n2)-c2cc(O)c(-c3nc(C(=O)N[C@@H](C)C(N)=O)cs3)nc2-c2csc(n2)[C@@H]2COC(=O)c3c4c5c(cccc5n3O)COC(=O)[C@@H](O[C@H]3C[C@](C)(O)[C@H](N(C)C)[C@H](C)O3)[C@@H](OC4)[C@H](NC(=O)c3csc1n3)c1nc(cs1)C(=O)N2 | 1.65 | 0.25 (≈ 0.174 µM) | 0.06 (≈ 0.0417 µM) | 700 (≈ 486 µM) | 2 (≈ 1.39 µM) | – | – | – | – |
| CO/C(C)=C1/NC(=O)[C@H]([C@@H](C)O)NC(=O)c2csc(n2)-c2cc(O)c(-c3nc(C(=O)N[C@@H](C)C(=O)NCc4ccc(CP(=O)(O)O)cc4)cs3)nc2-c2csc(n2)[C@@H]2COC(=O)c3c4c5c(cccc5n3O)COC(=O)[C@@H](O[C@H]3C[C@](C)(O)[C@H](N(C)C)[C@H](C)O3)[C@@H](OC4)[C@H](NC(=O)c3csc1n3)c1nc(cs1)C(=O)N2 | > 10 | 1 (≈ 0.616 µM) | 0.25 (≈ 0.154 µM) | – | 2 (≈ 1.23 µM) | > 2600 | – | – | – |
| CO/C(C)=C1/NC(=O)[C@H]([C@@H](C)O)NC(=O)c2csc(n2)-c2cc(O)c(-c3nc(C(=O)N[C@@H](C)C(=O)N4CCC[C@H]4CO)cs3)nc2-c2csc(n2)[C@@H]2COC(=O)c3c4c5c(cccc5n3O)COC(=O)[C@@H](O[C@H]3C[C@](C)(O)[C@H](N(C)C)[C@H](C)O3)[C@@H](OC4)[C@H](NC(=O)c3csc1n3)c1nc(cs1)C(=O)N2 | 2.18 | 0.03 (≈ 0.0197 µM) | 0.015 (≈ 0.00984 µM) | 2200 (≈ 1440 µM) | 0.25 (≈ 0.164 µM) | – | – | – | – |
| CO/C(C)=C1/NC(=O)[C@H]([C@@H](C)O)NC(=O)c2csc(n2)-c2cc(O)c(-c3nc(C(=O)N[C@@H](C)C(=O)NCCOCCO)cs3)nc2-c2csc(n2)[C@@H]2COC(=O)c3c4c5c(cccc5n3O)COC(=O)[C@@H](O[C@H]3C[C@](C)(O)[C@H](N(C)C)[C@H](C)O3)[C@@H](OC4)[C@H](NC(=O)c3csc1n3)c1nc(cs1)C(=O)N2 | 1 | 0.03 (≈ 0.0196 µM) | 0.015 (≈ 0.00982 µM) | > 2900 | 0.25 (≈ 0.164 µM) | – | – | – | – |
| CO/C(C)=C1/NC(=O)[C@H]([C@@H](C)O)NC(=O)c2csc(n2)-c2cc(O)c(-c3nc(C(=O)N[C@@H](C)C(=O)NCCc4ccncc4)cs3)nc2-c2csc(n2)[C@@H]2COC(=O)c3c4c5c(cccc5n3O)COC(=O)[C@@H](O[C@H]3C[C@](C)(O)[C@H](N(C)C)[C@H](C)O3)[C@@H](OC4)[C@H](NC(=O)c3csc1n3)c1nc(cs1)C(=O)N2 | 3.3 | 0.125 (≈ 0.0809 µM) | 0.015 (≈ 0.00971 µM) | – | 0.06 (≈ 0.0388 µM) | – | > 3400 | – | – |
| CO/C(C)=C1/NC(=O)[C@H]([C@@H](C)O)NC(=O)c2csc(n2)-c2cc(O)c(-c3nc(C(=O)N[C@@H](C)C(=O)NCCOP(=O)([O-])[O-])cs3)nc2-c2csc(n2)[C@@H]2COC(=O)c3c4c5c(cccc5n3O)COC(=O)[C@@H](O[C@H]3C[C@](C)(O)[C@H](N(C)C)[C@H](C)O3)[C@@H](OC4)[C@H](NC(=O)c3csc1n3)c1nc(cs1)C(=O)N2.[Na+].[Na+] | 1.65 | 8 | 0.5 | – | 16 | > 4800 | – | – | – |
| CO/C(C)=C1/NC(=O)[C@H]([C@@H](C)O)NC(=O)c2csc(n2)-c2cc(O)c(-c3nc(C(=O)N[C@@H](C)C(=O)NC[C@H](O)CO)cs3)nc2-c2csc(n2)[C@@H]2COC(=O)c3c4c5c(cccc5n3O)COC(=O)[C@@H](O[C@H]3C[C@](C)(O)[C@H](N(C)C)[C@H](C)O3)[C@@H](OC4)[C@H](NC(=O)c3csc1n3)c1nc(cs1)C(=O)N2 | 5 | 0.25 (≈ 0.165 µM) | 0.03 (≈ 0.0198 µM) | > 2200 | 0.25 (≈ 0.165 µM) | – | – | – | – |
| CO/C(C)=C1/NC(=O)[C@H]([C@@H](C)O)NC(=O)c2csc(n2)-c2cc(O)c(-c3nc(C(=O)N[C@@H](C)C(=O)N[C@@H]4[C@@H](O)[C@H](O)[C@@H](CO)O[C@H]4O)cs3)nc2-c2csc(n2)[C@@H]2COC(=O)c3c4c5c(cccc5n3O)COC(=O)[C@@H](O[C@H]3C[C@](C)(O)[C@H](N(C)C)[C@H](C)O3)[C@@H](OC4)[C@H](NC(=O)c3csc1n3)c1nc(cs1)C(=O)N2 | > 10 | 1 (≈ 0.624 µM) | 0.06 (≈ 0.0375 µM) | > 2200 | 0.5 (≈ 0.312 µM) | – | – | – | – |
| CO/C(C)=C1/NC(=O)[C@H]([C@@H](C)O)NC(=O)c2csc(n2)-c2cc(O)c(-c3nc(C(=O)N[C@@H](C)C(=O)NCc4ccc(O)cc4)cs3)nc2-c2csc(n2)[C@@H]2COC(=O)c3c4c5c(cccc5n3O)COC(=O)[C@@H](O[C@H]3C[C@](C)(O)[C@H](N(C)C)[C@H](C)O3)[C@@H](OC4)[C@H](NC(=O)c3csc1n3)c1nc(cs1)C(=O)N2 | 4.35 | 0.007 (≈ 0.00453 µM) | 0.007 (≈ 0.00453 µM) | 480 (≈ 311 µM) | 0.03 (≈ 0.0194 µM) | – | – | – | – |
| CO/C(C)=C1/NC(=O)[C@H]([C@@H](C)O)NC(=O)c2csc(n2)-c2cc(O)c(-c3nc(C(=O)N[C@@H](C)C(=O)NC(CC(=O)O)C(=O)O)cs3)nc2-c2csc(n2)[C@@H]2COC(=O)c3c4c5c(cccc5n3O)COC(=O)[C@@H](O[C@H]3C[C@](C)(O)[C@H](N(C)C)[C@H](C)O3)[C@@H](OC4)[C@H](NC(=O)c3csc1n3)c1nc(cs1)C(=O)N2 (some centres undefined) | – | 16 (≈ 10.3 µM) | 0.25 (≈ 0.161 µM) | – | 16 (≈ 10.3 µM) | – | – | – | – |
| CO/C(C)=C1/NC(=O)[C@H]([C@@H](C)O)NC(=O)c2csc(n2)-c2cc(O)c(-c3nc(C(=O)N[C@@H](C)C(=O)NCCc4ccc(O)c(O)c4)cs3)nc2-c2csc(n2)[C@@H]2COC(=O)c3c4c5c(cccc5n3O)COC(=O)[C@@H](O[C@H]3C[C@](C)(O)[C@H](N(C)C)[C@H](C)O3)[C@@H](OC4)[C@H](NC(=O)c3csc1n3)c1nc(cs1)C(=O)N2 | > 10 | 0.25 (≈ 0.159 µM) | 0.125 (≈ 0.0793 µM) | – | 0.5 (≈ 0.317 µM) | – | 7 (≈ 4.44 µM) | – | – |
| CO/C(C)=C1/NC(=O)[C@H]([C@@H](C)O)NC(=O)c2csc(n2)-c2cc(O)c(-c3nc(C(=O)N[C@@H](C)C(=O)N(C)C[C@@H](O)[C@@H](O)[C@@H](O)[C@@H](O)CO)cs3)nc2-c2csc(n2)[C@@H]2COC(=O)c3c4c5c(cccc5n3O)COC(=O)[C@@H](O[C@H]3C[C@](C)(O)[C@H](N(C)C)[C@H](C)O3)[C@@H](OC4)[C@H](NC(=O)c3csc1n3)c1nc(cs1)C(=O)N2 | – | 0.125 (≈ 0.0773 µM) | 0.015 (≈ 0.00927 µM) | – | 0.5 (≈ 0.309 µM) | – | – | > 2400 | – |
| CO/C(C)=C1/NC(=O)[C@H]([C@@H](C)O)NC(=O)c2csc(n2)-c2cc(O)c(-c3nc(C(=O)N[C@@H](C)C(=O)N4CCC(O)CC4)cs3)nc2-c2csc(n2)[C@@H]2COC(=O)c3c4c5c(cccc5n3O)COC(=O)[C@@H](O[C@H]3C[C@](C)(O)[C@H](N(C)C)[C@H](C)O3)[C@@H](OC4)[C@H](NC(=O)c3csc1n3)c1nc(cs1)C(=O)N2 | 4.35 | 0.007 (≈ 0.00459 µM) | 0.003 (≈ 0.00197 µM) | – | 0.06 (≈ 0.0394 µM) | – | – | 1100 (≈ 722 µM) | – |
| CO/C(C)=C1/NC(=O)[C@H]([C@@H](C)O)NC(=O)c2csc(n2)-c2cc(O)c(-c3nc(C(=O)N[C@@H](C)C(=O)NCCc4cc(O)cc(O)c4)cs3)nc2-c2csc(n2)[C@@H]2COC(=O)c3c4c5c(cccc5n3O)COC(=O)[C@@H](O[C@H]3C[C@](C)(O)[C@H](N(C)C)[C@H](C)O3)[C@@H](OC4)[C@H](NC(=O)c3csc1n3)c1nc(cs1)C(=O)N2 | > 10 | 0.25 (≈ 0.159 µM) | 0.06 (≈ 0.0381 µM) | – | 0.5 (≈ 0.317 µM) | – | 20 (≈ 12.7 µM) | – | – |
| CO/C(C)=C1/NC(=O)[C@H]([C@@H](C)O)NC(=O)c2csc(n2)-c2cc(O)c(-c3nc(C(=O)N[C@@H](C)C(=O)NCc4ccc(O)c(O)c4)cs3)nc2-c2csc(n2)[C@@H]2COC(=O)c3c4c5c(cccc5n3O)COC(=O)[C@@H](O[C@H]3C[C@](C)(O)[C@H](N(C)C)[C@H](C)O3)[C@@H](OC4)[C@H](NC(=O)c3csc1n3)c1nc(cs1)C(=O)N2 | > 10 | 0.03 (≈ 0.0192 µM) | 0.007 (≈ 0.00448 µM) | – | 0.06 (≈ 0.0384 µM) | – | – | – | 20 (≈ 12.8 µM) |
| CO/C(C)=C1/NC(=O)[C@H]([C@@H](C)O)NC(=O)c2csc(n2)-c2cc(O)c(-c3nc(C(=O)N[C@@H](C)C(=O)NCCc4ccc(O)cc4)cs3)nc2-c2csc(n2)[C@@H]2COC(=O)c3c4c5c(cccc5n3O)COC(=O)[C@@H](O[C@H]3C[C@](C)(O)[C@H](N(C)C)[C@H](C)O3)[C@@H](OC4)[C@H](NC(=O)c3csc1n3)c1nc(cs1)C(=O)N2 | > 10 | 0.003 (≈ 0.00192 µM) | 0.0005 (≈ 0.000321 µM) | – | 0.007 (≈ 0.00449 µM) | – | – | 120 (≈ 76.9 µM) | – |
| CO/C(C)=C1/NC(=O)[C@H]([C@@H](C)O)NC(=O)c2csc(n2)-c2cc(O)c(-c3nc(C(=O)N[C@@H](C)C(=O)NCCOCCOCCOCCOCCOCCOC4O[C@H](CO)[C@@H](O)[C@H](O)[C@H]4O)cs3)nc2-c2csc(n2)[C@@H]2COC(=O)c3c4c5c(cccc5n3O)COC(=O)[C@@H](O[C@H]3C[C@](C)(O)[C@H](N(C)C)[C@H](C)O3)[C@@H](OC4)[C@H](NC(=O)c3csc1n3)c1nc(cs1)C(=O)N2 (some centres undefined) | – | 4 (≈ 2.14 µM) | 1 (≈ 0.536 µM) | – | 8 (≈ 4.29 µM) | – | – | – | > 3700 |
| COCCOCCOCCOCCNC(=O)[C@H](C)NC(=O)c1csc(-c2nc3c(cc2O)-c2nc(cs2)C(=O)N[C@@H]([C@@H](C)O)C(=O)N/C(=C(\C)OC)c2nc(cs2)C(=O)N[C@@H]2c4nc(cs4)C(=O)N[C@@H](COC(=O)c4c5c6c(cccc6n4O)COC(=O)[C@@H](O[C@H]4C[C@](C)(O)[C@H](N(C)C)[C@H](C)O4)[C@H]2OC5)c2nc-3cs2)n1 | – | 0.06 (≈ 0.0368 µM) | 0.003 (≈ 0.00184 µM) | – | 0.5 (≈ 0.307 µM) | – | – | – | – |
